# Test results reported in patent US20230031406A1, “COMPOUNDS AND COMPOSITIONS FOR TREATING CONDITIONS ASSOCIATED WITH NLRP ACTIVITY” (Novartis AG, priority 2018, published 2023).
# Test system: PMA-differentiated THP-1 cells
# Experiment: IL-1β production in PMA-differentiated THP-1 cells stimulated with gramicidin (hTHP-1 assay containing 2% fetal bovine serum; Procedures 1 and 2)
# Format: cell-based, human
# Details: Homo sapiens, THP-1, Table B2; 2% fetal bovine serum; class symbols; read-out: hTHP-1 IC50
# How it was run: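 Human monocytic THP-1 cells, matured overnight with PMA at 20 ng/ml, are seeded in low-serum (2% FBS) RPMI. Test compounds, at final concentrations from 100 down to 0.0017 μM, precede gramicidin (5 μM, 2 h) by one hour. Released IL-1β is then determined by HTRF.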
row,SMILES,IC50
1,"Cc1c(C2CC2)nc(C2CC2)c(C)c1NC(=O)N=S(N)(=O)c1cc(C(C)(C)O)cs1 (single isomer, unassigned) [Compound 612b, (R) or (S)-N′-((2,6-dicyclopropyl-3,5-dimethylpyridin-4-yl)carbamoyl)-4-(2-hydroxypropan-2-yl)thiophene-2-sulfonimidamide]",1 to 5 µM
2,"CC(C)n1nc(S(N)(=O)=NC(=O)Nc2c3c(nc4c2CCC4(C)C)CCC3)cc1C(C)(C)O (single isomer, unassigned) [Compound 615b, (R) or (S)-N′-((3,3-dimethyl-1,2,3,5,6,7-hexahydrodicyclopenta [b,e]pyridin-8-yl)carbamoyl)-5-(2-hydroxypropan-2-yl)-1-isopropyl-1H-pyrazole-3-sulfonimidamide]",1 to 5 µM
3,"Cc1c(C(F)(F)F)nc2c(c1NC(=O)N=S(N)(=O)c1cnn(C(F)F)c1)CCC2 (single isomer, unassigned) [Compound 617a, (R) or (S)-1-(Difluoromethyl)-N′-((3-methyl-2-(trifluoromethyl)-6,7-dihydro-5H-cyclopenta[b]pyridin-4-yl)carbamoyl)-1H-pyrazole-4-sulfonimidamide]",5 to 30 µM
4,"Cc1nc2c(c(NC(=O)N=S(N)(=O)c3ncc(C(C)(C)O)s3)c1C1CC1)CCC2 (single isomer, unassigned) [Compound 618b, (R) or (S)-N′-((3-cyclopropyl-2-methyl-6,7-dihydro-5H-cyclopenta[b]pyridin-4-yl)carbamoyl)-5-(2-hydroxypropan-2-yl)thiazole-2-sulfonimidamide]",0.2 to 1 µM
5,"CC(C)(O)c1ccnc(S(N)(=O)=NC(=O)Nc2c3c(nc4c2CCC4(C)C)CCC3)c1 (single isomer, unassigned) [Compound 620b, (R) or (S)-N′-((3,3-dimethyl-1,2,3,5,6,7-hexahydrodicyclopenta [b,e]pyridin-8-yl)carbamoyl)-4-(2-hydroxypropan-2-yl)pyridine-2-sulfonimidamide]",1 to 5 µM
6,"Cc1nc2c(c(NC(=O)N=S(N)(=O)c3cc(C(C)(C)O)cs3)c1C(C)C)CCC2 (single isomer, unassigned) [Compound 622b, (R) or (S)-4-(2-Hydroxypropan-2-yl)-N′-((3-isopropyl-2-methyl-6,7-dihydro-5H-cyclopenta[b]pyridin-4-yl)carbamoyl) thiophene-2-sulfonimidamide]",5 to 30 µM

# Same assay, conditions: Homo sapiens, THP-1, Table B2; 2% fetal bovine serum; numeric bounds; read-out: hTHP-1 IC50
row,SMILES,IC50
1,"Cc1c(C2CC2)nc(C2CC2)c(C)c1NC(=O)N=S(N)(=O)c1cc(C(C)(C)O)cs1 (single isomer, unassigned) [Compound 612a, (S) or (R)-N′-((2,6-dicyclopropyl-3,5-dimethylpyridin-4-yl)carbamoyl)-4-(2-hydroxypropan-2-yl)thiophene-2-sulfonimidamide]",> 30 µM
2,"CC(C)n1nc(S(N)(=O)=NC(=O)Nc2c3c(nc4c2CCC4(C)C)CCC3)cc1C(C)(C)O (single isomer, unassigned) [Compound 615a, (S) or (R)-N′-((3,3-dimethyl-1,2,3,5,6,7-hexahydrodicyclopenta [b,e]pyridin-8-yl)carbamoyl)-5-(2-hydroxypropan-2-yl)-1-isopropyl-1H-pyrazole-3-sulfonimidamide]",> 30 µM
3,"Cc1c(C(F)(F)F)nc2c(c1NC(=O)N=S(N)(=O)c1cnn(C(F)F)c1)CCC2 (single isomer, unassigned) [Compound 617b, (S) or (R)-1-(Difluoromethyl)-N′-((3-methyl-2-(trifluoromethyl)-6,7-dihydro-5H-cyclopenta[b]pyridin-4-yl)carbamoyl)-1H-pyrazole-4-sulfonimidamide]",> 30 µM
4,"Cc1nc2c(c(NC(=O)N=S(N)(=O)c3ncc(C(C)(C)O)s3)c1C1CC1)CCC2 (single isomer, unassigned) [Compound 618a, (S) or (R)-N′-((3-cyclopropyl-2-methyl-6,7-dihydro-5H-cyclopenta[b]pyridin-4-yl)carbamoyl)-5-(2-hydroxypropan-2-yl)thiazole-2-sulfonimidamide]",> 30 µM
5,"CC(C)(O)c1ccnc(S(N)(=O)=NC(=O)Nc2c3c(nc4c2CCC4(C)C)CCC3)c1 (single isomer, unassigned) [Compound 620a, (S) or (R)-N′-((3,3-dimethyl-1,2,3,5,6,7-hexahydrodicyclopenta [b,e]pyridin-8-yl)carbamoyl)-4-(2-hydroxypropan-2-yl)pyridine-2-sulfonimidamide]",> 30 µM

# Same assay, conditions: Table B2; 2% fetal bovine serum; class symbols; read-out: hTHP-1 IC50
row,SMILES,IC50
1,"CCc1c(C(F)(F)F)nc2c(c1NC(=O)N=S(N)(=O)c1sc(C(C)(C)O)cc1F)CCC2 (single isomer, unassigned) [Compound 611b, (R) or (S)-N′-((3-ethyl-2-(trifluoromethyl)-6,7-dihydro-5H-cyclopenta[b]pyridin-4-yl)carbamoyl)-3-fluoro-5-(2-hydroxypropan-2-yl)thiophene-2-sulfonimidamide]",0.2 to 1 µM
2,"CC(C)(O)c1sc(S(N)(=O)=NC(=O)Nc2c3c(nc4c2CCC4(C)C)CCC3)cc1F (single isomer, unassigned) [Compound 613a, (R) or (S)-N′-((3,3-dimethyl-1,2,3,5,6,7-hexahydrodicyclopenta [b,e]pyridin-8-yl)carbamoyl)-4-fluoro-5-(2-hydroxypropan-2-yl)thiophene-2-sulfonimidamide]",0.04 to 0.2 µM
3,"CC(C)(O)c1sc(S(N)(=O)=NC(=O)Nc2c3c(nc4c2CCC4(C)C)CCC3)cc1F (single isomer, unassigned) [Compound 613b, -N′-((3,3-dimethyl-1,2,3,5,6,7-hexahydrodicyclopenta [b,e]pyridin-8-yl)carbamoyl)-4-fluoro-5-(2-hydroxypropan-2-yl)thiophene-2-sulfonimidamide]",1 to 5 µM
4,"CC(C)(O)c1sc(S(N)(=O)=NC(=O)Nc2c3c(nc4c2CCC42CC2)CCC3)cc1F (single isomer, unassigned) [Compound 614a, (R) or (S)-4-Fluoro-5-(2-hydroxypropan-2-yl)-N′-((1′,5′,6′,7′-tetrahydro-2′H-spiro[cyclopropane-1,3′-dicyclopenta[b,e]pyridin]-8′-yl)carbamoyl) thiophene-2-sulfonimidamide]",0.04 to 0.2 µM
5,"CC(C)(O)c1sc(S(N)(=O)=NC(=O)Nc2c3c(nc4c2CCC42CC2)CCC3)cc1F (single isomer, unassigned) [Compound 614b, (S) or (R)-4-Fluoro-5-(2-hydroxypropan-2-yl)-N′-((1′,5′,6′,7′-tetrahydro-2′H-spiro[cyclopropane-1,3′-dicyclopenta[b,e]pyridin]-8′-yl)carbamoyl) thiophene-2-sulfonimidamide]",1 to 5 µM
6,"C[C@@H]1CCc2c1nc1c(c2NC(=O)N=S(N)(=O)c2cc(F)c(C(C)(C)O)s2)CCC1 (single isomer, unassigned) [Compound 616a, (R) or (S)-4-Fluoro-5-(2-hydroxypropan-2-yl)-N′-(((R)-3-methyl-1,2,3,5,6,7-hexahydrodicyclopenta [b,e]pyridin-8-yl)carbamoyl) thiophene-2-sulfonimidamide]",0.04 to 0.2 µM
7,"C[C@@H]1CCc2c1nc1c(c2NC(=O)N=S(N)(=O)c2cc(F)c(C(C)(C)O)s2)CCC1 (single isomer, unassigned) [Compound 616b, (S) or (R)-4-Fluoro-5-(2-hydroxypropan-2-yl)-N′-(((R)-3-methyl-1,2,3,5,6,7-hexahydrodicyclopenta [b,e]pyridin-8-yl)carbamoyl) thiophene-2-sulfonimidamide]",5 to 30 µM
8,"Cc1c(C(F)(F)F)nc2c(c1NC(=O)N=S(N)(=O)c1ccn(C(F)F)n1)CCC2 (single isomer, unassigned) [Compound 621a, (S) or (R)-1-(Difluoromethyl)-N′-((3-methyl-2-(trifluoromethyl)-6,7-dihydro-5H-cyclopenta[b]pyridin-4-yl)carbamoyl)-1H-pyrazole-3-sulfonimidamide]",5 to 30 µM
9,"Cc1c(C(F)(F)F)nc2c(c1NC(=O)N=S(N)(=O)c1ccn(C(F)F)n1)CCC2 (single isomer, unassigned) [Compound 621b, (R) or (S)-1-(Difluoromethyl)-N′-((3-methyl-2-(trifluoromethyl)-6,7-dihydro-5H-cyclopenta[b]pyridin-4-yl)carbamoyl)-1H-pyrazole-3-sulfonimidamide]",1 to 5 µM
10,"Cc1nc2c(c(NC(=O)N=S(N)(=O)c3cc(C(C)(C)O)cs3)c1C(C)C)CCC2 (single isomer, unassigned) [Compound 622a, (S) or (R)-4-(2-Hydroxypropan-2-yl)-N′-((3-isopropyl-2-methyl-6,7-dihydro-5H-cyclopenta[b]pyridin-4-yl)carbamoyl) thiophene-2-sulfonimidamide]",5 to 30 µM
11,"Cc1nc2c(c(NC(=O)N=S(N)(=O)c3cc(C(C)(C)O)cs3)c1C1CC1)CCC2 (single isomer, unassigned) [Compound 623a, (R) or (S)-N′-((3-cyclopropyl-2-methyl-6,7-dihydro-5H-cyclopenta[b]pyridin-4-yl)carbamoyl)-4-(2-hydroxypropan-2-yl)thiophene-2-sulfonimidamide]",0.04 to 0.2 µM
12,"Cc1nc2c(c(NC(=O)N=S(N)(=O)c3cc(C(C)(C)O)cs3)c1C1CC1)CCC2 (single isomer, unassigned) [Compound 623b, (S) or (R)-N′-((3-cyclopropyl-2-methyl-6,7-dihydro-5H-cyclopenta[b]pyridin-4-yl)carbamoyl)-4-(2-hydroxypropan-2-yl)thiophene-2-sulfonimidamide]",5 to 30 µM
13,"Cc1c(C(F)(F)F)nc2c(c1NC(=O)N=S(N)(=O)c1cc(C(C)(C)O)cs1)CCC2 (single isomer, unassigned) [Compound 624a, (S) or (R)-4-(2-Hydroxypropan-2-yl)-N′-((3-methyl-2-(trifluoromethyl)-6,7-dihydro-5H-cyclopenta[b]pyridin-4-yl)carbamoyl) thiophene-2-sulfonimidamide]",1 to 5 µM
